Patent US20240156854A1, “METHYLCOBALAMIN OPHTHALMIC PREPARATION AND USE THEREOF” (EYE INSTITUTE OF SHANDONG FIRST MEDICAL UNIVERSITY, priority 2022, published 2024)

Assays:
[1] = system: Mouse model of neurotrophic keratitis; assay: Confocal laser microscope imaging of corneal nerves (β-tubulin III staining) in mouse model of neurotrophic keratitis; assay type: in vivo, C57BL/6 mice; conditions: 14 d after the operation
Experimental: (§1) (1) C57BL/6 mice, 6 to 8 weeks old, male, weighing 20 g to 25 g, were purchased from Beijing Vital River Laboratory Animal Technology Co., Ltd. Animal breeding was conducted in the Animal Laboratory of the Eye Institute of Shandong First Medical University. The temperature was controlled at 22±2° C., the humidity was controlled at 60±10%, a light and dark cycle was 12 h, and food and drink were given ad libitum.
(2) Experimental grouping: 30 of 6- to 8-week-old C57BL/6 male mice (body weight 20 g to 25 g) were randomly divided into 5 groups, 6 in each group, respectively: • 1. A control group • 2. An eye drop group with the control methylcobalamin ophthalmic drop Comparative Example 1 • 3. An eye drop group with a recombinant human nerve growth factor • 4. An eye drop group with methylcobalamin+proanthocyanidin (Example 1) • 5. A subconjunctival implantation group with a methylcobalamin hydrogel (Example 2) […]
Samples were taken 14 d after the operation. […] The cornea was washed 6 times with PBS, 10 min each time, the corneal epithelium was spread upward, and sealed with DAPI-containing anti-fluorescence quenching buffered glycerin, stored in the dark, and then imaged with a confocal laser microscope.

[2] = system: Mouse model of neurotrophic keratitis; assay: Slit lamp photography of the eye in mouse model of neurotrophic keratitis; assay type: in vivo, C57BL/6 mice; conditions: day 7, slit lamp; eye drops 4 times a day or subconjunctival hydrogel implant (about 0.02 mg)
Experimental: as §1
(2) Experimental grouping: 30 of 6- to 8-week-old C57BL/6 male mice (body weight 20 g to 25 g) were randomly divided into 5 groups, 6 in each group, respectively: • 1. A control group • 2. An eye drop group with the control methylcobalamin ophthalmic drop Comparative Example 1 • 3. An eye drop group with a recombinant human nerve growth factor • 4. An eye drop group with methylcobalamin+proanthocyanidin (Example 1) • 5. A subconjunctival implantation group with a methylcobalamin hydrogel (Example 2)
The mice were intraperitoneally anesthetized with a 0.6% pentobarbital sodium solution (1 ml/100 g), fixed on an operating table in a lateral position, and the bulbar conjunctiva was incised 90 degrees along the temporal corneoscleral limbus with Vannas scissors. The retroorbital venous plexus should not be damaged. […]

recombinant human nerve growth factor: recombinant human nerve growth factor eye drops, comparator group
regeneration of corneal nerve endings [1]: regenerated
corneal neovascularization [2]: not obvious
